Data set [1] relates to organotypic epithelial raft cultures of the PHKs. Description: Histological examination of cell differentiation in raft cultures. The conditions noted are these: highest tested concentration 50 µg/ml.
Experimental: Primary human keratinocytes (PHKs) were seeded on top of collagen gels in 24-well microtiter plates and maintained submerged for 24–48 h. The collagen rafts were then raised and placed into stainless-steel grids at the interface between air and the liquid culture medium. The epithelial cells were allowed to stratify. Rafts were infected with 5,000 PFU of HSV-1KOS or HSV-2G at 10 days post lifting and treated with adefovir or PMEO-DAPym. Five days later, one series of rafts was fixed in 10% buffered formalin, embedded in paraffin, and stained with hematoxylin and eosin for histological evaluation.
Another data set relates to HSV-2 (NS and RV-194). The data set can be described thus: Virus yield reduction assay in HEL cells, HSV-2 clinical isolates. The settings on record: for EC90: Human alphaherpesvirus 2, HEL.
A further data set deals with CXCR4 or CXCR3. Description: Flow cytometry of CXCR4 and CXCR3 expression on PBMC. The data set is classed as cell-based, human. The conditions noted are these: data not shown. As to the method:
PBMC were cultured in the presence of adefovir, tenofovir, and PMEO-DAPym and incubated at 37°C in a humidified, 5% CO2-controlled atmosphere. The expression of cellular activation markers was measured after 3 days of culture. Briefly, after washing the cells with PBS containing 2% FCS, we incubated them with PerCP-conjugated anti-CD4 mAb (clone SK3) in combination with PE-conjugated anti-CD25, anti-CD69, or anti-HLA-DR mAbs for 30 min at room temperature. For aspecific background staining, cells were stained in parallel with Simultest Control IgG γ1/γ2a and PerCP-conjugated mouse IgG1. Finally, the cells were washed with PBS, fixed with 1% formaldehyde solution, and analyzed with a FACSCalibur (BD Biosciences, San Jose, CA); data were acquired with CellQuest software and further analyzed with the FLOWJO software (Tree Star, San Carlos, CA). The expression of the chemokine receptors was measured after 24 h, and PBMC were incubated with PerCP-conjugated anti-CD4 mAb (clone SK3) in combination with APC-conjugated anti-CXCR4 mAb (clone 12G5) and PE-conjugated anti-CCR5 (clone 2D7) or anti-CXCR3 (clone 1C6). To evaluate the biological effects of the β-chemokines produced by drug-treated PBMC, freshly isolated PBMC were incubated for 1 h at 37°C with supernatants collected from PBMC cultures treated with compounds for 24 h. […]

Data set [2] concerns PBMC. Description: PBMC viability (trypan blue dye exclusion, flow cytometry). The data set is classed as cell-based, human. The settings on record: 20, 100 and 500 µg/ml.
The subject of data set [3] is PBMC. Description: Chemokine mRNA expression (RT-PCR) in PBMC. Format: cell-based, human. The settings on record: 100 µg/ml, 4 h. Here is the method:
Figure 9 Expression of CC-chemokines, CCR5 and chemokine mRNA expression in PBMC cultures after drug treatment. Panel A: Production of CC-chemokines by PBMC and the effects of adefovir, tenofovir, and PMEO-DAPym on the expression of the CCR5 receptor. Freshly isolated PBMCs from four healthy donors were incubated for 24 h with medium only (NC) or with adefovir, tenofovir, or PMEO-DAPym. We collected the supernatants and measured the concentrations of MIP-1α (▪), MIP-1β (▴), and RANTES (•) using a Bioplex system (Bio-Rad, Hercules, CA). Shown are means ± SEM. The cells were also collected, and the expression of the CCR5 receptor (□) was measured with flow cytometry using the PE-labeled CCR5 (clone 2D7) mAb; it is shown as percentage of control (± SEM) from four independent representative experiments. Panel B: Chemokine mRNA expression upon PMEO-DAPym exposure to PBMC. RT-PCR analysis of MIP-1α, MIP-1β, RANTES, and GAPDH (control) expression in PBMC treated with 100-µg/ml PMEO-DAPym for 4 h. Similar results were obtained with PBMC from three different donors. Results from one representative donor are shown.
We isolated total RNA from approximately 10^6 PBMC using the RNeasy Mini Kit (QIAGEN, Hilden, Germany). To eliminate potential genomic DNA contamination, the samples were treated with DNase I (Roche). […]

The subject of the next data set is HSV. Also noted: method as in PMID 20643915, PMID 20709216. The conditions noted are these: CAPRISA trial; cited from earlier work.
The subject of the next data set is HSV-1 and HSV-2. The data set can be described thus: Organotypic epithelial raft cultures of PHKs, virus production. The data set is classed as cell-based. The conditions noted are these: HSV-1 and HSV-2, 20 µg/ml. As to the method: Figure 3 Inhibitory activities of tenofovir, adefovir, and PMEO-DAPym against laboratory HSV-1 and HSV-2 strains in organotypic epithelial raft cultures. Panels A (HSV-1) and B (HSV-2): Drugs at different concentrations were added to the raft cell cultures on the day of infection (10 days after initiation of differentiation). The drugs remained in the presence of the cells for 5 days until the rafts were frozen for determination of virus production with a plaque assay in HEL cell cultures. Error bars represent S.D.
The epithelial cells were allowed to stratify. […] Virus production per raft was then calculated.

≈ marks a conversion by molar mass, not a printed value. Bounds are passed on as bounds.

Experimental for HSV-2 (NS and RV-194): These assays were carried out in HEL cell monolayers at different times post infection. […] After 2 h at 37°C, the cells were washed and medium containing different concentrations of PMEO-DAPym (in duplicate) was added. Following 24, 48, and 72 h of incubation, we released the viruses by freeze-thawing and then titrated them using a plaque assay in HEL cells.

Consider `Nc1cc(OCCOCP(=O)(O)O)nc(N)n1` [PMEO-DAPym, 6-phosphonylmethoxyethoxy-2,4-diaminopyrimidine], for which, in data set [1], the “effect on cell differentiation (histological examination)” value is “no effect on cell differentiation”. For the same molecule, the EC90 is < 1 µg/mL with HSV-2 (NS and RV-194) (24 h, Strain NS, moi = 1x10^-3, 24 hours); < 1 µg/mL in the data set on HSV-2 (NS and RV-194) (24 h, Strain NS, moi = 1x10^-4, 24 hours); 2.08 µg/mL (≈ 7.87 µM) with HSV-2 (NS and RV-194) (24 h, Strain RV-194, moi = 1x10^-3, 24 hours); < 1 µg/mL with HSV-2 (NS and RV-194) (24 h, Strain RV-194, moi = 1x10^-4, 24 hours); < 1 µg/mL with HSV-2 (NS and RV-194) (48 h, Strain NS, moi = 1x10^-3, 48 hours); < 1 µg/mL in the data set with HSV-2 (NS and RV-194) (48 h, Strain NS, moi = 1x10^-4, 48 hours). Besides, the EC90 is < 1 µg/mL in the data set on HSV-2 (NS and RV-194) (48 h, Strain RV-194, moi = 1x10^-3, 48 hours); < 1 µg/mL in the data set with HSV-2 (NS and RV-194) (48 h, Strain RV-194, moi = 1x10^-4, 48 hours); 1.34 µg/mL (≈ 5.07 µM) in the data set on HSV-2 (NS and RV-194) (72 h, Strain NS, moi = 1x10^-3, 72 hours); < 1 µg/mL in the data set on HSV-2 (NS and RV-194) (72 h, Strain NS, moi = 1x10^-4, 72 hours); 1 µg/mL (≈ 3.79 µM) with HSV-2 (NS and RV-194) (72 h, Strain RV-194, moi = 1x10^-3, 72 hours); < 1 µg/mL with HSV-2 (NS and RV-194) (72 h, Strain RV-194, moi = 1x10^-4, 72 hours). The EC99 is 3.0 µg/mL with HSV-2 (NS and RV-194) (Strain NS, moi = 1x10^-3, 24 hours); 3.28 µg/mL in the data set with HSV-2 (NS and RV-194) (Strain NS, moi = 1x10^-3, 48 hours); 3.63 µg/mL in the data set with HSV-2 (NS and RV-194) (Strain NS, moi = 1x10^-3, 72 hours); 3.6 µg/mL in the data set with HSV-2 (NS and RV-194) (Strain NS, moi = 1x10^-4, 24 hours); 1.0 µg/mL with HSV-2 (NS and RV-194) (Strain NS, moi = 1x10^-4, 48 hours); 2.3 µg/mL in the data set with HSV-2 (NS and RV-194) (Strain NS, moi = 1x10^-4, 72 hours). In addition, the EC99 in the data set with HSV-2 (NS and RV-194) (Strain RV-194, moi = 1x10^-3, 24 hours) was 7.15 µg/mL; with HSV-2 (NS and RV-194) (Strain RV-194, moi = 1x10^-3, 48 hours), 1.0 µg/mL; in the data set on HSV-2 (NS and RV-194) (Strain RV-194, moi = 1x10^-3, 72 hours) it was 3.58 µg/mL; in the data set on HSV-2 (NS and RV-194) (Strain RV-194, moi = 1x10^-4, 24 hours), < 1 µg/mL; with HSV-2 (NS and RV-194) (Strain RV-194, moi = 1x10^-4, 48 hours) it was 1.58 µg/mL; in the data set on HSV-2 (NS and RV-194) (Strain RV-194, moi = 1x10^-4, 72 hours) it was 2.62 µg/mL. Also, the “downregulation of CXCR4 or CXCR3” value in the data set on CXCR4 or CXCR3 is on record as “No downregulation”. Besides, the PBMC viability result in the data set with PBMC [2] is on record as “did not affect PBMC viability”. Moreover, in the data set on PBMC [3], the “increase in MIP-1β and MIP-1α mRNA expression” value is given as > 9 fold.

For `C[C@H](Cn1cnc2c(N)ncnc21)OCP(=O)(O)O` [Tenofovir, 9-(2-phosphonylmethoxypropyl)adenine], the “prevention of HSV infection” value in the data set on HSV was 51%. Moreover, the “reduction of herpesvirus replication” value with HSV-1 and HSV-2 is reported as < 0.5 log10.

The record behind these values is article PMC3723632, “A Multi-targeted Drug Candidate with Dual Anti-HIV and Anti-HSV Activity” (PLoS Pathogens, 2013).
